Measurements as given in patent publication US9096559B2, “4-carboxybenzylamino derivatives as histone deacetylase inhibitors” (Merck Sharp & Dohme Corp., priority 2007, dated 2015).
pIC50: −log10 of the molar value.

Assays:
[1] = tested on: human cervical cancer (HeLa) and colon carcinoma (HCT116) cells; assay: ATP (Vialight) cell proliferation assay, 72 hr; type: cell-based; settings: IP = inflection point, cell line not given, read-out: Prol-72 hr IP (inflection point)
Description: The novel compounds of the present invention were tested for their ability to inhibit proliferation of the human cervical cancer (HeLa) and colon carcinoma (HCT116) cells.
In this assay, also referred to as the Vialight Assay, cellular ATP levels are measured as a means of quantifying cellular proliferation. This assay makes use of a bioluminescent method from Cambrex (ViaLight PLUS, cat. #LT07-121). In the presence of ATP, luciferase converts luciferin to oxyluciferin and light. The amount of light produced (emission at 565 nm) is measured and correlates with a relative amount of proliferation. Human cervical cancer (HeLa) or colon carcinoma (HCT116) cells were incubated with vehicle or increasing concentrations of compound for 48, 72 or 96 hours. Cell proliferation was quantified by adding the cell lysis reagent (provided in the Vialight assay kit) directly to culture wells, followed by addition of the ATP-monitoring reagent (containing luciferase/luciferin). The amount of light produced is then measured (emission at 565 nm). The quantity of light produced, as measured by […], is directly proportional to the number of living cells in culture.

[2] = target: histone deacetylase, subtype 1 (HDAC1) (Homo sapiens (Human), UniProt Q13547); assay: HDAC1-Flag in vitro deacetylation assay; type: biochemical; settings: IP = inflection point; read-out: HDAC1 IP (inflection point)
Description: Novel compounds were tested for their ability to inhibit histone deacetylase, subtype 1 (HDAC1) using an in vitro deacetylation assay. The enzyme source for this assay was an epitope-tagged human HDAC1 complex immuno-purified from stably expressing mammalian cells. The substrate consisted of a commercial product containing an acetylated lysine side chain (BIOMOL Research Laboratories, Inc., Plymouth Meeting, Pa.). Upon deacetylation of the substrate by incubation with the purified HDAC1 complex, a fluorophore is produced that is directly proportional to the level of deacetylation.

Sequence of histone deacetylase, subtype 1 (HDAC1) (Q13547 whole entry): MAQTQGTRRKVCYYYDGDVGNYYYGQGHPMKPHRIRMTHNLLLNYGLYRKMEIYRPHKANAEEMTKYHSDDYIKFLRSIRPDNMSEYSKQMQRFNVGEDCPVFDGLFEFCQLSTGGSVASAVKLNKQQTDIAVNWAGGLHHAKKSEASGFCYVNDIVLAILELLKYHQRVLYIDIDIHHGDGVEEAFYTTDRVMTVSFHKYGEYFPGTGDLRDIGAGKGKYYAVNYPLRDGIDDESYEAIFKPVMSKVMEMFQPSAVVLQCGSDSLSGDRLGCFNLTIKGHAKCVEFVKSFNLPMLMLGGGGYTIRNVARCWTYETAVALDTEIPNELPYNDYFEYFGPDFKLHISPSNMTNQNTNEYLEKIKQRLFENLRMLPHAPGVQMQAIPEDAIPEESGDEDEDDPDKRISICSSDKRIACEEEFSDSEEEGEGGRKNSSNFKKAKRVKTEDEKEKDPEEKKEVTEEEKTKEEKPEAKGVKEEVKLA

Compound	pIC50 [1]	pIC50 [2]
CC(C)COC(=O)NCc1ccc(C(=O)Nc2cc(-c3cccs3)ccc2N)cc1 [Example 20, 2-methylpropyl {[4-({[2-amino-5-(2-thienyl)phenyl]amino}carbonyl)phenyl]methyl}carbamate]	6.52	7.51
CCCC(=O)NCc1ccc(C(=O)Nc2cc(-c3cccs3)ccc2N)cc1 [Example 38, N-[2-amino-5-(2-thienyl)phenyl]-4-[(butanoylamino)methyl]benzamide]	6.82	7.92
Nc1ccc(-c2cccs2)cc1NC(=O)c1ccc(CNC(=O)CCc2cccnc2)cc1 [Example 56, N-[2-amino-5-(2-thienyl)phenyl]-4-{[(3-pyridin-3-ylpropanoyl)amino]methyl}benzamide]	6.80	7.89
Cc1c(CNCc2ccc(C(=O)Nc3cc(-c4ccccc4)ccc3N)cc2)cnn1C [Example 63, N-(4-amino-3-biphenylyl)-4-({[(1,5-dimethyl-1H-pyrazol-4-yl)methyl]amino}methyl)benzamide]	6.17	7.89
Nc1ccc(-c2ccccc2)cc1NC(=O)c1ccc(CNC(=O)C2CCC2)cc1 [Example 30, N-(4-aminobiphenyl-3-yl)-4-{[(cyclobutylcarbonyl)amino]methyl}benzamide]	6.66	7.64
O=C(NCc1ccc(C(=O)Nc2cc(-c3cccnc3)ccc2O)cc1)OCc1cccnc1 [Example 6, pyridin-3-ylmethyl[(4-{[(2-hydroxy-5-pyridin-3-ylphenyl)amino]carbonyl}phenyl)methyl]carbamate]	6.00	7.80
Nc1ccc(-c2ccccc2)cc1NC(=O)c1ccc(CNC(=O)CCc2ccccc2)cc1 [Example 31, N-(4-aminobiphenyl-3-yl)-4-{[(3-phenylpropanoyl)amino]methyl}benzamide]	6.38	7.85
Nc1ccc(-c2ccccc2)cc1NC(=O)c1ccc(CNC(=O)Cc2cccnc2)cc1 [Example 51, N-(4-aminobiphenyl-3-yl)-4-{[(pyridin-3-ylacetyl)amino]methyl}benzamide]	5.68	6.85
CC(=O)N(Cc1ccc(C(=O)Nc2cc(-c3cccs3)ccc2N)cc1)Cc1cn(C)nn1 [Example 123, 4-({Acetyl[(1-methyl-1H-1,2,3-triazol-4-yl)methyl]amino}methyl)-N-[2-amino-5-(2-thienyl)phenyl]benzamide]	7.06	8.02
Nc1ccc(-c2cccs2)cc1NC(=O)c1ccc(CNC(=O)Oc2ccccc2)cc1 [Example 21, phenyl {[4-({[2-amino-5-(2-thienyl)phenyl]amino}carbonyl)phenyl]methyl}carbamate]	6.19	7.11
Nc1ccc(-c2cccs2)cc1NC(=O)c1ccc(CNC(=O)CCc2ccccc2)cc1 [Example 44, N-[2-amino-5-(2-thienyl)phenyl]-4-{[(3-phenylpropanoyl)amino]methyl}benzamide]	6.70	7.62
Nc1ccc(-c2ccccc2)cc1NC(=O)c1ccc(CNC(=O)Oc2ccccc2)cc1 [Example 14, phenyl[(4-{[(4-aminobiphenyl-3-yl)amino]carbonyl}phenyl)methyl]carbamate]	5.85	6.49
Nc1ccc(-c2ccccc2)cc1NC(=O)c1ccc(CNc2ccncc2)cc1 [Example 61, N-(4-amino-3-biphenylyl)-4-[(4-pyridinylamino)methyl]benzamide]	5.77	8.00
Nc1ccc(-c2ccccc2)cc1NC(=O)c1ccc(CNC(=O)Cc2ccccc2)cc1 [Example 34, N-(4-aminobiphenyl-3-yl)-4-{[(phenylacetyl)amino]methyl}benzamide]	6.51	7.14
CCOC(=O)NCc1ccc(C(=O)Nc2cc(-c3cccs3)ccc2N)cc1 [Example 16, ethyl {[4-({[2-amino-5-(2-thienyl)phenyl]amino}carbonyl)phenyl]methyl}carbamate]	6.89	7.92
CC(=O)NCc1ccc(C(=O)Nc2cc(-c3cccs3)ccc2N)cc1 [Example 36, 4-[(acetylamino)methyl]-N-[2-amino-5-(2-thienyl)phenyl]benzamide]	6.92	7.96
CCOC(=O)NCc1ccc(C(=O)Nc2cc(-c3ccccc3)ccc2N)cc1 [Example 10, ethyl[(4-{[(4-aminobiphenyl-3-yl)amino]carbonyl}phenyl)methyl]carbamate]	6.64	7.80

Compound	pIC50 [1]	pIC50 [2]
Nc1ccc(-c2cccs2)cc1NC(=O)c1ccc(CN2C(=O)OC[C@H]2Cc2ccccc2)cc1 [Example 120, N-[2-amino-5-(2-thienyl)phenyl]-4-{[(4R)-2-oxo-4-(phenylmethyl)-1,3-oxazolidin-3-yl]methyl}benzamide]	6.04	7.08
Nc1ccc(-c2cccs2)cc1NC(=O)c1ccc(CNC(=O)Cc2ccncc2)cc1 [Example 55, N-[2-amino-5-(2-thienyl)phenyl]-4-{[(pyridin-4-ylacetyl)amino]methyl}benzamide]	6.80	7.74
Nc1ccc(-c2ccccc2)cc1NC(=O)c1ccc(CNC(=O)C2CCCC2)cc1 [Example 33, N-(4-aminobiphenyl-3-yl)-4-{[(cyclopentylcarbonyl)amino]methyl}benzamide]	6.70	7.68
Nc1ccc(-c2cccs2)cc1NC(=O)c1ccc(CNC(=O)C2CC2)cc1 [Example 39, N-[2-amino-5-(2-thienyl)phenyl]-4-{[(cyclopropylcarbonyl)amino]methyl}benzamide]	7.02	7.82
Nc1ccc(-c2cccs2)cc1NC(=O)c1ccc(CNC(=O)Cc2ccccn2)cc1 [Example 54, N-[2-amino-5-(2-thienyl)phenyl]-4-{[(pyridin-2-ylacetyl)amino]methyl}benzamide]	6.80	7.92
CCCOC(=O)NCc1ccc(C(=O)Nc2cc(-c3cccs3)ccc2N)cc1 [Example 19, propyl {[4-({[2-amino-5-(2-thienyl)phenyl]amino}carbonyl)phenyl]methyl}carbamate]	6.96	7.72
COC(=O)NCc1ccc(C(=O)Nc2cc(-c3ccccc3)ccc2N)cc1 [Example 9, methyl[(4-{[(4-aminobiphenyl-3-yl)amino]carbonyl}phenyl)methyl]carbamate]	6.59	7.77
Nc1ccc(-c2cccc(F)c2)cc1NC(=O)c1ccc(CNc2ccncc2)cc1 [Example 68, N-(4-amino-3′-fluoro-3-biphenylyl)-4-[(4-pyridinylamino)methyl]benzamide]	5.04	7.57
Nc1ccc(-c2ccccc2)cc1NC(=O)c1ccc(CNC(=O)OCc2ccccn2)cc1 [Example 59, pyridin-2-ylmethyl[(4-{[(4-aminobiphenyl-3-yl)amino]carbonyl}phenyl)methyl]carbamate]	6.36	7.70
CC(C)C(=O)NCc1ccc(C(=O)Nc2cc(-c3ccccc3)ccc2N)cc1 [Example 27, N-(4-aminobiphenyl-3-yl)-4-{[(2-methylpropanoyl)amino]methyl}benzamide]	6.82	8.00
CC(C)CC(=O)NCc1ccc(C(=O)Nc2cc(-c3cccs3)ccc2N)cc1 [Example 42, N-[2-amino-5-(2-thienyl)phenyl]-4-{[(3-methylbutanoyl)amino]methyl}benzamide]	6.92	7.82
CC(C)CC(=O)NCc1ccc(C(=O)Nc2cc(-c3ccccc3)ccc2N)cc1 [Example 29, N-(4-aminobiphenyl-3-yl)-4-{[(3-methylbutanoyl)amino]methyl}benzamide]	6.68	7.85
CC(C)OC(=O)NCc1ccc(C(=O)Nc2cc(-c3cccs3)ccc2N)cc1 [Example 18, 1-methylethyl {[4-({[2-amino-5-(2-thienyl)phenyl]amino}carbonyl)phenyl]methyl}carbamate]	6.92	7.72
Nc1ccc(-c2ccccc2)cc1NC(=O)c1ccc(CNC(=O)C2CC2)cc1 [Example 26, N-(4-aminobiphenyl-3-yl)-4-{[(cyclopropylcarbonyl)amino]methyl}benzamide]	6.77	7.82
CC(C)(C)C(=O)NCc1ccc(C(=O)Nc2cc(-c3ccccc3)ccc2N)cc1 [Example 28, N-(4-aminobiphenyl-3-yl)-4-{[(2,2-dimethylpropanoyl)amino]methyl}benzamide]	6.59	7.60
Nc1ccc(-c2cccs2)cc1NC(=O)c1ccc(CNC(=O)Cc2ccccc2)cc1 [Example 47, N-[2-amino-5-(2-thienyl)phenyl]-4-{[(phenylacetyl)amino]methyl}benzamide]	6.82	7.80
Nc1ccc(-c2cccs2)cc1NC(=O)c1ccc(CNCC(=O)O)cc1 [Example 124, {[4-({[2-amino-5-(2-thienyl)phenyl]amino}carbonyl)benzyl]amino}acetic acid]	< 4.70	7.47
